Article PMC8537901, “Progesterone Metabolism by Human and Rat Hepatic and Intestinal Tissue” (Pharmaceutics, 2021)

Key:
[1] = Human cytosol stability assay, liver cytosol; conditions: for effect of inhibitor on rate of progesterone depletion: presence of NADPH, inhibitor 100 µM; for half-life at 1 µM: human, t1/2 (min)
Description: (§3) Progesterone stability was assessed in intestinal and liver cytosol in the presence or absence of NADPH cofactor and specific enzyme inhibitors. For both intestinal and liver cytosol, the protein concentration was adjusted to 0.5 mg/mL. Both human liver and intestinal cytosol (with 0.1 mM EDTA) were then pre-incubated for 10 min in a thermomixer comfort by Eppendorf in an RNAse/DNAse 96-well plate until reaching a temperature of 37 °C. Next, a final concentration of 100 µM of enzyme inhibitors were added to the cytosol. […] The enzyme inhibitors used during this study were: Epalrestat (AKR1B1 inhibitor), Diazepam (AKR1C inhibitor), Finasteride (AKR1D1 inhibitor), Diazepam + Flufenamic Acid (AKR1C inhibitor cocktail), Menadione (aldehyde oxidase inhibitor) and Allopurinol (xanthine oxidase inhibitor).
(§4) Next, the mixtures were incubated for an additional 5 min, and NADPH was added at a final concentration of 1 mM. Finally, progesterone (1 µM) was added and mixed by pipetting to initiate the reaction. Immediately following reaction initiation, a 50 µL sample was taken. The sample was then diluted in 100 µL of acetonitrile to terminate enzymatic reaction. Samples were centrifuged at 4 °C and 2500 rpm for 30 min. Following centrifugation, the supernatant was removed and diluted 1:1 with milli-Q water. […] This process was followed for sampling at all required time intervals.
(§5) Liquid chromatography with tandem mass spectrometry (LC MS/MS) was used to analyse samples obtained from both cytosol and homogenate stability assays (see Appendix A Figure A1 for example spectra). […] The column used was Aquity HSS T3 (1.8 µm) 2.1 × 50 mm (Water Ltd., Herts, UK), and the samples were run with an injection volume of 8 µL at 70 °C. A solvent system and gradient with a flow rate of 600 µL/minute was used to perform this analysis. The mobile phase consisted of 10 mM ammonium formate with 0.1% v/v formic acid in water (A) and acetonitrile (B).
(§6) The percent of substrate present at each timepoint relative to the 0 min sample was calculated from the LC-MS/MS peak area ratios (compound peak area/internal standard peak area). […] The Kolmogorov–Smirnov test was used to assess normality followed by Student’s t-test. Results were considered statistically significant when p < 0.05.

[2] = Tissue homogenate stability assay, rat liver homogenate; type: in vitro ADME; conditions: for half-life: Sprague Dawley, rat
Description: (§1) Progesterone stability was determined in rat and human intestinal mucosa and liver homogenates. In addition, progesterone was incubated in stock solution containing phosphate-buffered saline, 0.1% Tween80 and 1% DMSO. […] Stability assays were carried out either in the presence or absence of 1mM of the cofactor NADPH. The physiological concentration of NADPH was approximately 100 µM [26]. However, for the purpose of this research, a concentration of 1 mM was used to ensure an excess of co-factor was available and not rate-limited throughout the incubation period.
(§2) The protein concentration for the rat and human liver and intestinal homogenates was adjusted to 5 mg/mL. […] A final concentration of 1 µM progesterone and 1 mM NADPH (where required) was added to the homogenate, and samples were immediately taken (t–0). Next, the homogenate solution was incubated with shaking (700 rpm) at 37 °C, and further samples were taken at timed intervals. To stop the enzymatic reaction, samples were immediately diluted in ice-cold acetonitrile at a ratio of 1:3 sample:acetonitrile. The samples were then centrifuged at 3000 rpm for 30 min to pellet the homogenates.

[3] = Tissue homogenate stability assay, rat intestinal homogenate; type: in vitro ADME; conditions: for half-life: Sprague Dawley, rat
Description: as §1, §2

[4] = Stability in control media (phosphate-buffered saline, 0.1% Tween80, 1% DMSO, pH 7.4); type: physicochemical
Description: as §1

[5] = Tissue homogenate stability assay, human liver homogenate; type: in vitro ADME; conditions: for half-life: human, liver homogenate
Description: as §1, §2

[6] = Human cytosol stability assay, intestinal cytosol; conditions: for half-life at 1 µM: human, human intestinal cytosol, t1/2 (min)
Description: as §3, §4, §5, §6

[7] = Tissue homogenate stability assay, human intestinal homogenate; type: in vitro ADME; conditions: for half-life: human
Description: as §1, §2

[8] = rat liver homogenate + 1 mM NADPH
[9] = rat intestinal homogenate + 1 mM NADPH
[10] = human liver homogenate, no NADPH
[11] = human liver cytosol + NADPH + AKR1B1 inhibitor (Epalrestat 100 µM)
[12] = human liver cytosol + NADPH + AKR1C1 cocktail (Diazepam + Flufenamic Acid)
[13] = human liver cytosol + NADPH, no inhibitor
[14] = human intestinal cytosol + NADPH + AKR1B inhibitor (Epalrestat 100 µM)
[15] = human intestinal cytosol + NADPH, no inhibitor
[16] = human intestinal homogenate + 1 mM NADPH
[17] = human intestinal homogenate, no NADPH

Compound: CN1C(=O)CN=C(c2ccccc2)c2cc(Cl)ccc21 [diazepam, Diazepam]
- effect of inhibitor on rate of progesterone depletion ([1]; human liver cytosol): no significant difference

Compound: CC(=O)[C@H]1CC[C@H]2[C@@H]3CCC4=CC(=O)CC[C@]4(C)[C@H]3CC[C@]12C [Progesterone]
- half-life ([2]; liver homogenate, pH 7.4, rat liver homogenate, no NADPH): 0.663 ± 0.169 h
- half-life ([2]; rat liver homogenate, pH 7.4, rat liver homogenate + 1 mM NADPH): 0.045 h
- t1/2 [2, 8]: 2.72 ± 0.05 min
- % Drug Remaining After 60 min [2, 8]: 0.03 ± 0.0005%
- % of original concentration remaining ([2]; rat liver homogenate + NADPH, within 10 min of incubation): less than 2%
- % of the drug remaining ([2]; rat liver homogenate, absence of NADPH, after two hours of incubation): over 40%
- % Drug Remaining After 60 min ([2]; rat liver homogenate, no NADPH): 46.04 ± 0.69%
- half-life ([3]; rat intestinal homogenate, pH 7.4, rat intestinal homogenate + 1 mM NADPH): 3.29 h
- half-life ([3]; rat intestinal homogenate, pH 7.4, rat intestinal homogenate, no NADPH): 5.87 ± 0.614 h
- t1/2 [3, 9]: 3.2938 ± 0.0485 h
- % Drug Remaining After 60 min [3, 9]: 76.67 ± 4.72%
- % Drug Remaining After 60 min ([3]; rat intestinal homogenate + 1 mM NADPH, listed as progesterone): 77%
- % Drug Remaining After 60 min ([3]; rat intestinal homogenate, no NADPH): 90.93 ± 2.19%
- % Drug Remaining After 60 min ([3]; rat intestinal homogenate, no NADPH, listed as progesterone): over 90%
- % detectable in control media ([4]; after 2 h in control media): 99%
- time stable in stock solution ([4]; phosphate-buffered saline, 0.1% Tween80, 1% DMSO, pH 7.4, 1 µM): up to 6 h
- % Drug Remaining After 60 min ([5]; human liver homogenate + 1 mM NADPH): 0.27 ± 0.26%
- % of original concentration remaining ([5]; human liver homogenate + NADPH, within 10 min of incubation): less than 2%
- % of the drug remaining ([5]; human liver homogenate, absence of NADPH, after two hours of incubation): over 40%
- % Drug Remaining After 60 min [5, 10]: 43.32 ± 4.84%
- half-life ([5]; human liver homogenate + 1 mM NADPH, 1 µM progesterone, 5 mg/mL protein, 37 °C): 0.045 ± 0.000833 h
- half-life [5, 10]: 0.649 ± 0.195 h
- t1/2 [1, 11]: 0.3135 ± 0.016 h
- % Drug Remaining After 60 min [1, 11]: 6.6 ± 6.24%
- t1/2 [1, 12]: 0.5927 ± 0.111 h
- % Drug Remaining After 60 min [1, 12]: 33.5 ± 1.72%
- % Drug Remaining After 60 min ([1]; human liver cytosol + NADPH + AKR1C1 inhibitor (Diazepam 100 µM)): 0.11 ± 0.04%
- % Drug Remaining After 60 min ([1]; human liver cytosol + NADPH + AKR1D1 inhibitor (Finasteride 100 µM)): 7.85 ± 6.31%
- % Drug Remaining After 60 min ([1]; human liver cytosol + NADPH + AOX inhibitor (Menadione 100 µM)): 0.97 ± 0.88%
- t1/2 [1, 13]: 0.2288 ± 0.0135 h
- % Drug Remaining After 60 min [1, 13]: 0.04 ± 0.01%
- % Drug Remaining After 60 min ([1]; human liver cytosol, absence of NADPH, + AOX inhibitor (Menadione 100 µM)): 69.14 ± 2.91%
- % Drug Remaining After 60 min ([1]; human liver cytosol, absence of NADPH, + XAO inhibitor (Allopurinol 100 µM)): 57.09 ± 2.01%
- half-life at 1 µM ([1]; human liver cytosol, human liver cytosol + NADPH + AKR1C1 cocktail (Diazepam + Flufenamic Acid)): 0.593 h
- half-life at 1 µM ([1]; human liver cytosol, human liver cytosol + NADPH, no inhibitor): 0.217 h
- half-life at 1 µM ([1]; human liver cytosol, liver cytosol section (Figure 4), absence of NADPH, no inhibitor, line printed as Human intestinal Cytosol): 1.72 ± 0.156 h
- half-life at 1 µM ([1]; human liver cytosol, with Allopurinol (xanthine oxidase inhibitor), 100 µM, human liver cytosol, absence of NADPH, + XAO inhibitor (Allopurinol 100 µM)): 1.66 ± 0.152 h
- half-life at 1 µM ([1]; human liver cytosol, with Diazepam (AKR1C1 inhibitor), 100 µM, human liver cytosol + NADPH + AKR1C1 inhibitor (Diazepam 100 µM)): 0.235 ± 0.004 h
- half-life at 1 µM ([1]; human liver cytosol, with Epalrestat (AKR1B1 inhibitor), 100 µM, human liver cytosol + NADPH + AKR1B1 inhibitor (Epalrestat 100 µM)): 0.3 h
- half-life at 1 µM ([1]; human liver cytosol, with Finasteride (AKR1D1 inhibitor), 100 µM, human liver cytosol + NADPH + AKR1D1 inhibitor (Finasteride 100 µM)): 0.308 ± 0.0283 h
- half-life at 1 µM ([1]; human liver cytosol, with Menadione (aldehyde oxidase inhibitor), 100 µM, human liver cytosol, absence of NADPH, + AOX inhibitor (Menadione 100 µM)): 2.21 ± 0.0782 h
- half-life at 1 µM ([1]; liver cytosol, with Menadione 100 µM (aldehyde oxidase inhibitor), human liver cytosol + NADPH + AOX inhibitor (Menadione 100 µM)): 0.258 ± 0.0338 h
- % Drug Remaining After 60 min ([1]; liver cytosol section (Figure 4), absence of NADPH, no inhibitor, line printed as Human intestinal Cytosol): 56.6 ± 2.07%
- t1/2 [6, 14]: 3.0687 ± 0.3158 h
- % Drug Remaining After 60 min [6, 14]: 80.87 ± 7.84%
- % Drug Remaining After 60 min ([6]; human intestinal cytosol + NADPH + AKR1C1 inhibitor (Diazepam 100 µM)): 77.38 ± 6.37%
- % Drug Remaining After 60 min ([6]; human intestinal cytosol + NADPH + AKR1C cocktail (Diazepam + Flufenamic Acid)): 73.56 ± 3.69%
- % Drug Remaining After 60 min ([6]; human intestinal cytosol + NADPH + AKR1D1 inhibitor (Finasteride 100 µM)): 79.56 ± 4.44%
- t1/2 [6, 15]: 2.1587 ± 0.0458 h
- % Drug Remaining After 60 min [6, 15]: 72.51 ± 6.48%
- half-life at 1 µM [6, 15]: 2.16 h
- half-life at 1 µM ([6]; with Epalrestat (AKR1B inhibitor), 100 µM, human intestinal cytosol + NADPH + AKR1B inhibitor (Epalrestat 100 µM)): 3.07 h
- half-life at 1 µM ([6]; with Finasteride (AKR1D1 inhibitor), 100 µM, human intestinal cytosol + NADPH + AKR1D1 inhibitor (Finasteride 100 µM)): 3.03 ± 0.0732 h
- t1/2 [7, 16]: 2.6203 ± 0.4568 h
- % Drug Remaining After 60 min [7, 16]: 73.92 ± 5.11%
- % Drug Remaining After 60 min ([7]; human intestinal homogenate + 1 mM NADPH, listed as progesterone): 74%
- % Drug Remaining After 60 min [7, 17]: 75.82 ± 9.35%
- % Drug Remaining After 60 min ([7]; human intestinal homogenate, no NADPH, listed as progesterone): 76%
- half-life ([7]; human intestinal homogenate, human intestinal homogenate + 1 mM NADPH): 2.62 h
- half-life [7, 17]: 2.6 ± 0.229 h

Compound: CC1=CC(=O)c2ccccc2C1=O [Menadione]
- effect of inhibitor on rate of progesterone depletion ([1]; human liver cytosol): not deemed significant
